According to patent US10864178B2, “Pharmaceutical composition for treatment of cancer containing polyphenol compound as active ingredient” (priority 2016, dated 2020):

Legend:
[1] = test system: SAGS (selected AGS); experiment: Proliferation inhibition, selected AGS cells with the nature of cancer stem cells; assay type: cell-based; settings: Homo sapiens, read-out: IC50 concentration
Protocol: (§1) First, in order to examine the growth inhibitory effect of gossypol against stomach cancer stem cells, two types of common stomach cancer cells (AGS and MKN-74) and two types of stomach cancer stem cells (MKN-1 and SNU-484) were prepared. Each type of cells was cultured in a 96-well plate at a density of 1×10^3 to 1×10^4 cells/well for 24 hours, and treated with 0, 10, 20, 40 or 60 μM of gossypol, and then further cultured for 48 hours. […] Based on the measured absorbance, the IC50 concentration of gossypol, at which the survival rate of each type of cells, is measured, and the results are shown in FIGS. 6 and 7.
(§2) On selected AGS cells (hereinafter referred to as SAGS (selected AGS), Cell Death Dis. 2015 Jul. 2; 6:e1805) selected from the common stomach cancer cell line AGS (hereinafter referred to as PAGS (parental AGS)) by analyzing phenotypes, including the cancer stem cell marker expression, tumor spheroid formation and standard anticancer agent resistance of cancer cells that survived under 4 weeks of continuous metabolic stress, and tumor formation in immunosuppressed mice, the growth inhibitory effects of gossypol were examined. Cell culture and survival rate measurement methods were performed in the same manner as Example 2-1.

[2] = test system: MKN28; experiment: Proliferation inhibition, sulforhodamine B assay; assay type: cell-based; settings: Homo sapiens, MKN-28, 48 hours treatment
Protocol: (§3) In order to examine the proliferation inhibitory effects of gossypol against stomach cancer cell lines, 6 different stomach cancer cell lines (MKN28, MKN45, AGS, SNU668, Kato3 and HS746T) were prepared. The definition of cell lines known in the Korean Cell Line Bank or the American Type Culture Collection (ATCC) is described in Table 1 below.
(§4) Each of the 6 different cell lines (1×10^3 to 1×10^4 cells/well) was cultured in a 96-well plate for 24 hours, and treated with 0, 10, 20, 40 or 60 μM of gossypol, and then further cultured for 48 hours.

[3] = test system: Kato3; experiment: Proliferation inhibition, sulforhodamine B assay; assay type: cell-based; settings: Homo sapiens, 48 hours treatment
Protocol: as §3, §4

[4] = test system: MKN45; experiment: Proliferation inhibition, sulforhodamine B assay; assay type: cell-based; settings: Homo sapiens, MKN-45, 48 hours treatment
Protocol: as §3, §4

[5] = test system: AGS; experiment: Proliferation inhibition, sulforhodamine B assay; assay type: cell-based; settings: Homo sapiens, 48 hours treatment
Protocol: as §3, §4

[6] = test system: HS746T; experiment: Proliferation inhibition, sulforhodamine B assay; assay type: cell-based; settings: Homo sapiens, 48 hours treatment
Protocol: as §3, §4

[7] = test system: SNU668; experiment: Proliferation inhibition, sulforhodamine B assay; assay type: cell-based; settings: Homo sapiens, 48 hours treatment
Protocol: as §3, §4

[8] = test system: MKN28; experiment: Cell cycle analysis, PI staining, FACS; assay type: cell-based, Human; settings: 10 μM gossypol, 24 hours
Protocol: (§5) Each of the 6 different stomach cancer cells lines (MKN28, MKN45, AGS, SNU668, Kato3 and HS746T) (1×10^3 to 1×10^4 cells/well), described in Example 1-1 above, was cultured in a 100 mm culture dish for 24 hours, and treated with 0 or 10 μM of gossypol, and then further cultured for 24 hours. The cells treated with gossypol were harvested, fixed with 70% ethanol, washed with cold 1×PBS, and then stained with PI+RNase solution (DPBS, pH 7.4) in a dark room for 30 minutes. The cells were subjected to fluorescence activated cell sorting (FACS), and the percentage of each cell cycle was analyzed based on the content of DNA.

[9] = test system: MKN45; experiment: Cell cycle analysis, PI staining, FACS; assay type: cell-based, Human; settings: 10 μM gossypol, 24 hours
Protocol: as §5

[10] = test system: AGS; experiment: Cell cycle analysis, PI staining, FACS; assay type: cell-based, Human; settings: 10 μM gossypol, 24 hours
Protocol: as §5

[11] = test system: HS746T; experiment: Cell cycle analysis, PI staining, FACS; assay type: cell-based, Human; settings: 10 μM gossypol, 24 hours
Protocol: as §5

[12] = test system: AGS; experiment: Proliferation inhibition of common stomach cancer cells, sulforhodamine B assay; assay type: cell-based; settings: Homo sapiens, 48 hours, read-out: IC50 concentration
Protocol: as §1

[13] = test system: MKN-74; experiment: as above; assay type: cell-based; settings: Homo sapiens; MKN-74 common stomach cancer cells; 48 hours; read-out: IC50 concentration
Protocol: as §1

[14] = test system: MKN-1; experiment: Proliferation inhibition of stomach cancer stem cells, sulforhodamine B assay; assay type: cell-based; settings: Homo sapiens; MKN-1 stomach cancer stem cells; 48 hours; read-out: IC50 concentration
Protocol: as §1

[15] = test system: SNU-484; experiment: as above; assay type: cell-based; settings: SNU-484 stomach cancer stem cells; 48 hours; read-out: IC50 concentration
Protocol: as §1

[16] = test system: common stomach cancer cells (MKN-74 and AGS); experiment: Proliferation inhibition, average over common stomach cancer cells; assay type: cell-based; settings: Homo sapiens; average of MKN-74 and AGS; read-out: IC50 concentration, average
Protocol: as §1

[17] = test system: stomach cancer stem cells (MKN-1 and SNU-484); experiment: Proliferation inhibition, average over stomach cancer stem cells; assay type: cell-based; settings: average of MKN-1 and SNU-484; read-out: IC50 concentration, average
Protocol: as §1

[18] = test system: PAGS (parental AGS); experiment: Proliferation inhibition, parental AGS cells; assay type: cell-based; settings: Homo sapiens, read-out: IC50 concentration
Protocol: as §1, §2

[19] = test system: stomach cancer cell lines (MKN28, MKN45 and SNU668); experiment: ATP synthesis inhibition (Promega ATP assay kit); assay type: cell-based, Human; settings: 0, 10 or 20 μM of gossypol, 48 hours
Protocol: ATP (adenosine triphosphate) is an energy source for organisms, and inhibition of intracellular ATP synthesis leads to a decrease in energy metabolism activity. The ATP synthesis inhibitory effects of gossypol on the stomach cancer cell lines (MKN28, MKN45 and SNU668) described in Example 1-1 were examined.
Each of MKN28, MKN45 and SNU668 cell lines (1×10^3 to 1×10^4 cells/plate) was cultured in a 60 mm culture dish for 24 hours, treated with 0, 10 or 20 μM of gossypol, and then additionally cultured for 48 hours. Next, the cells were harvested, counted, diluted in 100 μl of RPMI buffer containing 10 vol % FBS, and then transferred to each well of 96-well plate. To each well containing the cells, 100 μl of assay buffer (rL/L reagent+reconstitution buffer) in the Promega ATP assay kit (G7572, Promega, […]., USA) was added, after which the emission of fluorescence was determined by measuring the absorbance at 560 nm.

[20] = test system: MKN45 (poorly differentiated cells); experiment: Cell death, Annexin V+PI staining, FACS; assay type: cell-based, Human
Protocol: (§6) Each of MKN28 (moderately differentiated cells) and MKN45 (poorly differentiated cells) cell lines (1×10^3 to 1×10^4 cells/plate), described in Example 1-1 above, was cultured in a 100 mm culture dish for 24 hours, and treated with 0, 5, 10 or 20 μM of gossypol, and then diluted in 400 μl of binding buffer (0.1 M Hepes, pH 7.4, 1.4 M NaCl, and 25 mM CaCl2)). The control cells treated with 0 μM of gossypol were divided into four groups which were not stained, stained with Annexin V, stained with PI (propidium iodide) and stained with Annexin V+PI, respectively, and the cells treated with 5, 10 or 20 μM of gossypol were stained with Annexin V+PI. Staining of the cells was performed in a dark room for 10 minutes. The stained cells were subjected to fluorescence activated cell sorting (FACS), thereby determining the ratio of dead cells to total cells. The results are shown in FIGS. 3 and 4 (BD Biosciences, #556547).

[21] = test system: MKN28 (moderately differentiated cells); experiment: Cell death, Annexin V+PI staining, FACS; assay type: cell-based, Human
Protocol: as §6

**Q.** `Cc1cc2c(C(C)C)c(O)c(O)c(C=O)c2c(O)c1-c1c(C)cc2c(C(C)C)c(O)c(O)c(C=O)c2c1O` [gossypol] was tested. Which IC50 [1] did it give?
**A.** Its IC50 is 2.8 µM.

**Q.** What about the GI50 [2] of the same molecule?
**A.** Its GI50 is 5.32 µM.

**Q.** And the GI50 [3]?
**A.** Its GI50 is 3.15 µM.

**Q.** And the GI50 [4]?
**A.** Its GI50 is 4.65 µM.

**Q.** What about the GI50 [5] of the same molecule?
**A.** Its GI50 is 6.43 µM.

**Q.** And the GI50 [6]?
**A.** Its GI50 is 9.89 µM.

**Q.** And the GI50 [7]?
**A.** Its GI50 is 4.11 µM.

**Q.** What about the “sum of sub G1 and GO/G1 compared to before treatment” value (“sum … compared to before treatment” below) [8] of the same molecule?
**A.** The value was “decreased”.

**Q.** And the “sum … compared to before treatment” value [9]?
**A.** Its value is “increased”.

**Q.** And the “sum … compared to before treatment” value [10]?
**A.** The value was “increased”.

**Q.** And the “sum … compared to before treatment” value [11]?
**A.** The value was “increased”.

**Q.** What about the IC50 [12] of the same molecule?
**A.** Its IC50 is 4.5 µM.

**Q.** And the IC50 [13]?
**A.** Its IC50 is 5.6 µM.

**Q.** What about the IC50 [14] of the same molecule?
**A.** The IC50 was 2.6 µM.

**Q.** And the IC50 [15]?
**A.** Its IC50 is 2.7 µM.

**Q.** And the IC50 [16]?
**A.** The IC50 was 5.05 µM.

**Q.** What about the IC50 [17] of the same molecule?
**A.** The IC50 was 2.65 µM.

**Q.** And the IC50 [18]?
**A.** Its IC50 is 4.2 µM.

**Q.** And the ATP synthesis [19]?
**A.** Its ATP synthesis is “inhibited in proportion to the concentration of gossypol”.

**Q.** What about the cell death percentage ([20]; 5 μM gossypol) of the same molecule?
**A.** Its cell death percentage is 45.75%.

**Q.** What about the cell death percentage ([20]; 10 μM gossypol) of the same molecule?
**A.** The cell death percentage was 65.8%.

**Q.** And the cell death percentage ([20]; 20 μM gossypol)?
**A.** Its cell death percentage is 82.22%.

**Q.** What about the cell death percentage ([21]; 5 μM gossypol) of the same molecule?
**A.** Its cell death percentage is 17.72%.

**Q.** And the cell death percentage ([21]; 10 μM gossypol)?
**A.** The cell death percentage was 28.85%.

**Q.** What about the cell death percentage ([21]; 20 μM gossypol) of the same molecule?
**A.** The cell death percentage was 55.62%.
